The values that follow come from patent US4613505A, “Ester of flurbiprofen and emulsion containing the same” (The Green Cross Corporation, priority 1983, dated 1986).

SMILES strings stand for the structures. Like-named read-outs stand apart in the source and are kept apart here.

The nature of the series: Hydrolysis in human articular synovia. Particulars: for metabolised at 1 h: human, articular synovia, 60 minutes at 37° C., read-out: Hydrolysis rate. The series is classed as in vitro ADME. How it is done:
Into 1 ml of articular synovia of a patient with rheumatoid or osteoarthritis, was added 10 ml of an acetone solution of ethyl 2-(2-fluoro-4-biphenylyl)propionate(ethyl flurbiprofen ester: compound 1) or acetoxymethyl 2-(2-fluoro-4-biphenylyl)propionate(acetoxymethyl flurbiprofen ester; compound 2) (each being contained in an equimolar amount to 50 ng of flurbiprofen), respectively, and the mixture was incubated for 60 minutes at 37° C. The concentration of flurbiprofen formed by hydrolysis was then determined by gas chromatography.

As for `CCOC(=O)C(C)c1ccc(-c2ccccc2)c(F)c1` (stereo not drawn) [Compound 1, ethyl 2-(2-fluoro-4-biphenylyl)propionate], the “hydrolysis in human articular synovia (in words)” value is given as “substantially not hydrolyzed”. For the same compound, the metabolised at 1 h (patient five (Rheumatoid)) is 0%. In addition, the metabolised at 1 h (patient four (Rheumatoid)) was 0%. Further, the metabolised at 1 h (patient one (Rheumatoid)) came to 25.8%. In addition, the metabolised at 1 h (patient three (Osteoarthritis)) was 0%. For the same compound, the metabolised at 1 h (patient two (Unknown)) was found to be 2%.

`CC(=O)OCOC(=O)C(C)c1ccc(-c2ccccc2)c(F)c1` (stereo not drawn) [Compound 2, acetoxymethyl 2-(2-fluoro-4-biphenylyl)propionate]: the “hydrolysis in human articular synovia (in words)” value is reported as “effectively hydrolyzed”. Also, the metabolised at 1 h (patient five (Rheumatoid)) amounted to 65.7%. For the setting “patient four (Rheumatoid)”, the metabolised at 1 h is 64.1%. For the same compound, for the setting “patient one (Rheumatoid)”, the metabolised at 1 h came to 91.3%. Moreover, under “patient three (Osteoarthritis)”, the metabolised at 1 h is 64.7%. The metabolised at 1 h (patient two (Unknown)) was 84.4%.
